According to patent US6528516B1, “Methods for reducing intraocular pressure using A3 adenosine receptor antagonists” (Trustees of the University of Pennsylvania, The Center for …, priority 1998, dated 2003):
Values joined by “and” are separate entries in the source; they are usually repeats but may differ in a detail not shown here. Identical values can stand only once.

What was measured:
[1] = test system: HCE (human ciliary epithelial) cell line, NPE cells; assay: Cell volume (shrinkage) of NPE cells in isosmotic solution, Coulter Counter, 5 μM gramicidin; format: cell-based
Method in brief: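 HCE-derived NPE cells suspended in isosmotic bicarbonate/HEPES Ringer's (pH 7.4, 298-305 mOsm), with 5 μM gramicidin D in all solutions to remove K^+ channel contribution. Volume measured by Coulter Counter as peak of distribution, normalized to first time point; shrinkage fit to monoexponential by nonlinear least squares for v∞ and τ. Vehicle-matched controls.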

human A3 receptor = biological target: T1, human A3 receptor (Homo sapiens, UniProt P0DMS8); assay: Adenylate cyclase assay, CHO cell membranes, forskolin stimulated; format: biochemical; conditions: forskolin 1 μM
T1 sequence (P0DMS8 1-318): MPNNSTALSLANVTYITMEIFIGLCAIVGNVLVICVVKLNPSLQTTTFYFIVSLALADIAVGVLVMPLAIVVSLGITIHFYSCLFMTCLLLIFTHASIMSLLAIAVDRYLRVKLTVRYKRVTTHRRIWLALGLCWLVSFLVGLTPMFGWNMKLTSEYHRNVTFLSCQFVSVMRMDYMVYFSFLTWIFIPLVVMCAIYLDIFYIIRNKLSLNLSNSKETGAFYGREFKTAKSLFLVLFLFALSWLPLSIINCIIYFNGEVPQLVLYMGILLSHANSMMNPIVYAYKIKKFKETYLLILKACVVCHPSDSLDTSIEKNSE

[2] = 30 nM IB-MECA, 5 μM gramicidin, FIG. 2A
[3] = FIG. 2D, 100 nM Cl-IB-MECA, IB-MECA in parallel

SMILES: CNC(=O)[C@H]1O[C@@H](n2cnc3c(NCc4cccc(I)c4)ncnc32)[C@H](O)[C@@H]1O [IB-MECA, N^6-(3-iodobenzyl)-adenosine-5′-N-methyluronamide]
- steady-state cell volume (V∞) [1, 2]: 98.5±0.1%
- time constant of the shrinkage (τ) [1, 2]: 3.5 ± 1.5 min
- effect of adenosine-receptor agonist on isoosmotic volume ([1]; 100 nM agonist): produced shrinkage
- steady-state cell volume (V∞) ([1]; 100 nM, FIG. 5A): 95.6±0.2%
- time constant of the shrinkage (τ) ([1]; 100 nM, FIG. 5A): 4.5 ± 0.6 min
- steady-state cell volume (V∞) ([1]; 1 μM IB-MECA, FIG. 2A): 95.9±0.3%
- time constant of the shrinkage (τ) ([1]; 1 μM IB-MECA, FIG. 2A): 2.4 ± 0.7 min
- steady-state cell volume (V∞) ([1]; 1 μM IB-MECA, FIG. 2B): 97.5±0.1%
- time constant of the shrinkage (τ) ([1]; 1 μM IB-MECA, FIG. 2B): 7.2 ± 1.0 min
- steady-state cell volume (V∞) ([1]; 3 μM IB-MECA, FIG. 2B): 96.7±0.3%
- time constant of the shrinkage (τ) ([1]; 3 μM IB-MECA, FIG. 2B): 10.0 ± 2.3 min
- steady-state cell volume (V∞) ([1]; 10 μM IB-MECA, FIG. 2B): 97.9±0.2%
- time constant of the shrinkage (τ) ([1]; 10 μM IB-MECA, FIG. 2B): 3.2 ± 1.1 min
- steady-state cell volume (V∞) [1, 3]: 96.8±0.4%
- time constant of the shrinkage (τ) [1, 3]: 6.3 ± 2.2 min
- Kd ([1]; Lineweaver-Burk plot of monoexponential fits, FIG. 2C, read-out: apparent Kd for the IB-MECA-induced shrinkage): 55 nM and ~55 nM
- Maximal inhibition of adenylate cyclase (human A3 receptor): ~60 % of total stimulation
